Assay [1] deals with Dual specificity tyrosine-phosphorylation-regulated kinase 1A (Homo sapiens) (UniProt Q13627). Kind of assay: Inhibition of DYRK1a (unknown origin) at 0.078 uM relative to control.
Assay [2] concerns the target Tyrosine-protein kinase HCK (Homo sapiens) (UniProt P08631). Nature of the assay: Inhibition of Hck (unknown origin) at 0.49 uM relative to control.
The target of assay [3] is Glycogen synthase kinase-3 beta (Homo sapiens) (UniProt P49841). Kind of assay: Inhibition of GSK3b (unknown origin) at 0.49 uM relative to control.
Assay [4] deals with Death-associated protein kinase 3 (Homo sapiens) (UniProt O43293). Kind of assay: Inhibition of ZIPK (unknown origin) at 0.49 uM relative to control.
The test system of assay [5] is Fibroblast growth factor receptor 3 (Homo sapiens), P22607 [K650M]. Nature of the assay: Inhibition of FGFR3 K650M mutant (unknown origin) at 0.49 uM relative to control.
Assay [6] has as its target Serine/threonine-protein kinase DCLK1 (Homo sapiens) (UniProt O15075). Kind of assay: Inhibition of DCAMKL1 (unknown origin) at 0.49 uM relative to control.
Assay [7] deals with Receptor-type tyrosine-protein kinase FLT3 (Homo sapiens), P36888 [D835Y]. Nature of the assay: Inhibition of Flt3 D835Y mutant (unknown origin) at 0.49 uM relative to control.
For assay [8], the system named is Mast/stem cell growth factor receptor Kit (Homo sapiens), P10721 [T670I]. Nature of the assay: Inhibition of KIT T670I mutant (unknown origin) at 0.49 uM relative to control.
The target in assay [9] is Ephrin type-B receptor 4 (Homo sapiens) (UniProt P54760). Nature of the assay: Inhibition of EPHB4 (unknown origin) at 0.49 uM relative to control.
Assay [10] addresses Ephrin type-A receptor 4 (Homo sapiens) (UniProt P54764). Nature of the assay: Inhibition of EPHA4 (unknown origin) at 0.49 uM relative to control.
In assay [11] the target is Serine/threonine-protein kinase Nek9 (Homo sapiens) (UniProt Q8TD19). Nature of the assay: Inhibition of NEK9 (unknown origin) at 0.49 uM relative to control.
The target of assay [12] is Protein kinase C eta type (Homo sapiens) (UniProt P24723). Nature of the assay: Inhibition of PKC-eta (unknown origin) at 0.49 uM relative to control.
Assay [13] deals with Mitogen-activated protein kinase 11 (Homo sapiens) (UniProt Q15759). Kind of assay: Inhibition of p38-beta2 (unknown origin) at 0.49 uM relative to control.
Assay [14] addresses Protein kinase C beta (Homo sapiens) (UniProt P05771). Nature of the assay: Inhibition of PKC-beta2 (unknown origin) at 0.45 uM relative to control.
Assay [15] concerns the target Vascular endothelial growth factor receptor 1 (Homo sapiens) (UniProt P17948). Kind of assay: Inhibition of FLT1 (unknown origin) at 0.45 uM relative to control.
For assay [16], the target named is Serine/threonine-protein kinase pim-2 (Homo sapiens) (UniProt Q9P1W9). Kind of assay: Inhibition of PIM2 (unknown origin) at 0.45 uM relative to control.
The test system of assay [17] is Leucine-rich repeat serine/threonine-protein kinase 2 (Homo sapiens), Q5S007 [G2019S]. Nature of the assay: Inhibition of LRRK2 G2019S mutant (unknown origin) at 0.45 uM relative to control.
For assay [18], the target named is T1, Serine/threonine-protein kinase D2 (Homo sapiens) (UniProt Q9BZL6).
T1 sequence (whole entry): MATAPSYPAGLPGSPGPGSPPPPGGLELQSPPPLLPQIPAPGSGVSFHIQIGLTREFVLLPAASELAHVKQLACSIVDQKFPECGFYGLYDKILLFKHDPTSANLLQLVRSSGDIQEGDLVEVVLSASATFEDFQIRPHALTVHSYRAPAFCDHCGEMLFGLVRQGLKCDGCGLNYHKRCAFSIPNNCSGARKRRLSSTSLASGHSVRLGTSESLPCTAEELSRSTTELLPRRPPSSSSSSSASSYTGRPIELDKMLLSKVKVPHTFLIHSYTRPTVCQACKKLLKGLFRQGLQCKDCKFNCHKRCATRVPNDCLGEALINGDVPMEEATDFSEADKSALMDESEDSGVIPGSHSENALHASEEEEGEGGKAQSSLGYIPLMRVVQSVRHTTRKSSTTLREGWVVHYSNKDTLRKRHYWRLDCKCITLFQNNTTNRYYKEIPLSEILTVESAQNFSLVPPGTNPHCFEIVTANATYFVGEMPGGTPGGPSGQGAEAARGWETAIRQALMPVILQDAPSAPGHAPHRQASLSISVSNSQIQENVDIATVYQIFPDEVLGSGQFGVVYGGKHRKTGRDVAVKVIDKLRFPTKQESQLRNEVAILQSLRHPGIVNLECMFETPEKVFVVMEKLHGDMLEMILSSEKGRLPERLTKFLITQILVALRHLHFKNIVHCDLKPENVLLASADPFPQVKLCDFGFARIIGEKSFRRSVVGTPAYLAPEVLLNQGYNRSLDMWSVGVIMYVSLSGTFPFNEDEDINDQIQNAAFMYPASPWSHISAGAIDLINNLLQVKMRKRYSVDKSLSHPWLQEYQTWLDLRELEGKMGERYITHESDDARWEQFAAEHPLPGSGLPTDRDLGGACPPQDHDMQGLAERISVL
Kind of assay: Inhibition of PKD2 (unknown origin) at 0.45 uM relative to control.

The target of assay [19] is Tyrosine-protein kinase BTK (Homo sapiens) (UniProt Q06187). Nature of the assay: Inhibition of BTK (unknown origin) at 0.45 uM relative to control.
Assay [20] deals with RAC-alpha serine/threonine-protein kinase (Homo sapiens) (UniProt P31749). Kind of assay: Inhibition of AKT1 (unknown origin) at 0.45 uM relative to control.
For assay [21], the target named is Tyrosine-protein kinase Tec (Homo sapiens) (UniProt P42680). Nature of the assay: Inhibition of TEC (unknown origin) at 0.45 uM relative to control.
The target in assay [22] is T2, MAP kinase-activated protein kinase 5 (Homo sapiens) (UniProt Q8IW41).
T2 sequence (whole entry): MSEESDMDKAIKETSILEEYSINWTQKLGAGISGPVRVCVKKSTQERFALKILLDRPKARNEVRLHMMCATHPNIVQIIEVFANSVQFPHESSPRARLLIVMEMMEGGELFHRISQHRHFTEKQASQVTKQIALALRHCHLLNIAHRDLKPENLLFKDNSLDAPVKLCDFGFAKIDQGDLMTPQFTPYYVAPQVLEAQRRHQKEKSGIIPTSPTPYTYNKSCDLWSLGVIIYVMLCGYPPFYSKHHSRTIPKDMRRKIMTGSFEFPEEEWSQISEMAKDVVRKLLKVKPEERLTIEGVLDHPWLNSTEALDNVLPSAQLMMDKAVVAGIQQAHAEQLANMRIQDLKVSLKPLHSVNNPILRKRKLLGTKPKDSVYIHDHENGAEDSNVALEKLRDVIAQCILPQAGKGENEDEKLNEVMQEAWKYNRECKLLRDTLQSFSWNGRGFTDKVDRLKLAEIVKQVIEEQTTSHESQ
Nature of the assay: Inhibition of PRAK (unknown origin) at 0.45 uM relative to control.

Assay [23] concerns the target Ephrin type-A receptor 4 (Homo sapiens) (UniProt P54764). Nature of the assay: Inhibition of EPHA4 (unknown origin) at 0.45 uM relative to control.

The structures appear in SMILES notation.

Consider `COC(=O)Nc1noc2cc(-c3c(-c4ccccn4)n[nH]c3C)ccc12`, for which the inhibition (usually the change of the read-out against control, counted positive when it falls) in [1] was 9.7%.

On to `Cc1[nH]nc(C2CC2)c1-c1ccc2c(NC(=O)C3CC3)noc2c1`, for which the inhibition came to 3.3% in [2]; 6.7% in assay [3]; 2.3% in assay [4]; 6.3% in assay [5]; 0% in [6]; 15.3% in assay [7]. Moreover, the inhibition is -1.7% in assay [8]; 1.7% in [9]; 2.3% in assay [10]; 1.7% in assay [11]; 7% in assay [12]; 0.7% in assay [13].

Consider `Cc1n[nH]c(C)c1-c1ccc2c(NC(=O)c3ccc(N4CCN(C)CC4)cc3)n[nH]c2c1`, for which the inhibition in [14] is 3.7%; in [15], 12.7%; in assay [16], -1.7%; in assay [17], 18.7%; in assay [18], 6.7%; in assay [19], 5%. Moreover, the inhibition was -1.7% in assay [20], 7% in assay [21], -1.7% in assay [22] and 0.7% in [23].

Values taken from ChEMBL document CHEMBL4052759, “Discovery of DS79182026: A potent orally active hepcidin production inhibitor” (Bioorg Med Chem Lett, 2017).
